Experimental data from US20240252463A1, “METHODS OF TREATING FIBROTIC PATHOLOGIES” (Mayo Foundation for Medical Education and Research, priority 2018, published 2024).

How the values were obtained:
YAP/TAZ = YAP/TAZ localization in pulmonary epithelial (NHAEpC) and endothelial (NHMVEC) cells; assay type: cell-based, human; details: FIG. 2b
Procedure: Scale bar represents 100 μm. […] Scale bar represents 100 μm.
ImmunofluorescenceMicroscopy: Cells were plated into 96 well plates (Corning 3603) in their specific growth media and allowed to attach (8 hours). Media was then exchanged for the indicated conditions for each experiment. Cells were fixed in 3.7% formalin (Sigma-Aldrich), permeabilized in 0.25% Triton X-100 (Sigma-Aldrich) and then blocked with 1% BSA for 1 h. Cells or tissue sections were incubated overnight with mouse monoclonal antibody against αSMA (Sigma-Aldrich F3777), and/or a rabbit monoclonal antibody against YAP/TAZ (Cell Signaling D24E4) diluted 1:200 in PBS with 1% BSA. Cells were then washed and exposed to flourescence-conjugated secondary antibodies (Invitrogen) diluted 1:1000 and DAPI (Thermo Fisher Scientific). Images were taken with a Cytation5 (BioTek) microscope. For scoring αSMA positive cells (FIG. 3b), an observer blinded to the treatment conditions counted αSMA-positive cells using a visual threshold for bright fibrous staining; a minimum of 200 cells was counted for each condition. YAP/TAZ localization was quantified (FIG. 2, 6, 8) using Gen5 (Biotek) software. […] Quantification of double positive (YAP/TAZ and αSMA) cells from lung tissue sections (FIG. 4d) was performed similarly; however separate thresholds were established for both YAP/TAZ and αSMA. A minimum of 4000 cells was quantified for each mouse.

CTGF, COL1A1, ACTA2, FN1 = experiment: qPCR of profibrotic and matrix remodeling gene expression in IPF patient-derived fibroblasts; assay type: cell-based, human; details: 2 ng/mL TGFβ and 10 μM DHX, 24 hours
Procedure: FIGS. 3A-3F DHX reverses fibroblast matrix deposition, contraction and stiffening. 3a. […] Genes which encode Connective tissue growth factor (CTGF), Collagen I (COL1A1), αSMA (ACTA2), and Fibronectin (FN1) are reduced by 24 hour treatment with DHX (10 μM), +/−SCH 39166 (3 μM). N=3 (****p<0.0001, ***p<0.001, *p<0.05 vs. 0.1% DMSO vehicle control) 3b. DHX reverses TGFβ-induced αSMA+ stress fiber formation. IMR-90 cells pre-stimulated with 2 ng/mL TGFβ for 48 hours and then treated with DHX (10 μM)+2 ng/mL TGFβ for an additional 24 hours prior to fixation. Cells which are positive for αSMA were quantified by a blinded investigator and noted in the bottom right corner, a minimum of 300 cells in each experiment were quantified. N=3. 3c. DHX reverses TGFβ-induced extracellular matrix accumulation. […] Cell derived matrix is measured using antibodies for Collagen I and Fibronectin. […] DHX attenuates IPF patient-derived fibroblast contractility measured by traction force microscopy. […] RMS tractions were determined in two independent experiments; box and whisker plots show min to max, quartile, and mean from one representative experiment (****p<0.0001, *p<0.05 vs. 0.1% DMSO vehicle control). […] The matrices were decellularized and passage 3 NHLFs were plated onto the matrices; after 24 hours RNA was collected and expression of profibrotic genes was analyzed. […]

Oc1cc2c(cc1O)[C@H]1c3ccccc3CN[C@@H]1CC2 (racemic) [Dihydrexidine, dihydrexidine]
YAP/TAZ localization in pulmonary epithelial and endothelial cells (YAP/TAZ): had no effect on YAP/TAZ localization
expression of matrix crosslinking, protease inhibitor and matrix degradation genes (CTGF, COL1A1, ACTA2, FN1): reversed the effects of TGFβ
